# In ChEMBL document CHEMBL3400118, “New approaches to the synthesis of sildenafil analogues and their enzyme inhibitory activity” (Bioorg Med Chem, 2015):
# What was measured:
# [1] = target: Carbonic anhydrase 12 (Homo sapiens, UniProt O43570); experiment: Inhibition of human carbonic anhydrase 12 preincubated for 15 mins by CO2 hydration assay
# [2] = target: Carbonic anhydrase 9 (Homo sapiens, UniProt Q16790); experiment: Inhibition of human carbonic anhydrase 9 preincubated for 15 mins by CO2 hydration assay
# [3] = test system: MCF7; experiment: Cytotoxicity against human MCF7 cells after 72 hrs using Calcein AM by fluorescence assay; assay type: functional, cell-based; conditions: MCF7, 72 h
# [4] = test system: K562; experiment: Cytotoxicity against human K562 cells after 72 hrs using Calcein AM by fluorescence assay; assay type: functional, cell-based; conditions: K562, 72 h
# [5] = target: Carbonic anhydrase 1 (Homo sapiens, UniProt P00915); experiment: Inhibition of human carbonic anhydrase 1 preincubated for 15 mins by CO2 hydration assay
# Sequence of Carbonic anhydrase 1 (P00915 whole entry): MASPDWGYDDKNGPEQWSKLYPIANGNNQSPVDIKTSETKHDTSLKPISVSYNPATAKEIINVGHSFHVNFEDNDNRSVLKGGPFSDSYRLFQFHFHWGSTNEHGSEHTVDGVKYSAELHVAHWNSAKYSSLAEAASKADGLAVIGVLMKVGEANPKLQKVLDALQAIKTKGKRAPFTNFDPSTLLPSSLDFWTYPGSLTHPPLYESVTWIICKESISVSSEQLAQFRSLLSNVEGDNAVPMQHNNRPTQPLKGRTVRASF
# [6] = target: Tyrosine-protein kinase ABL1 (Homo sapiens, UniProt P00519); experiment: Inhibition of Abl (unknown origin) using GGEAIYAAPFKK peptide as substrate by [gamma-33P]ATP assay
# Sequence of Tyrosine-protein kinase ABL1 (P00519 whole entry): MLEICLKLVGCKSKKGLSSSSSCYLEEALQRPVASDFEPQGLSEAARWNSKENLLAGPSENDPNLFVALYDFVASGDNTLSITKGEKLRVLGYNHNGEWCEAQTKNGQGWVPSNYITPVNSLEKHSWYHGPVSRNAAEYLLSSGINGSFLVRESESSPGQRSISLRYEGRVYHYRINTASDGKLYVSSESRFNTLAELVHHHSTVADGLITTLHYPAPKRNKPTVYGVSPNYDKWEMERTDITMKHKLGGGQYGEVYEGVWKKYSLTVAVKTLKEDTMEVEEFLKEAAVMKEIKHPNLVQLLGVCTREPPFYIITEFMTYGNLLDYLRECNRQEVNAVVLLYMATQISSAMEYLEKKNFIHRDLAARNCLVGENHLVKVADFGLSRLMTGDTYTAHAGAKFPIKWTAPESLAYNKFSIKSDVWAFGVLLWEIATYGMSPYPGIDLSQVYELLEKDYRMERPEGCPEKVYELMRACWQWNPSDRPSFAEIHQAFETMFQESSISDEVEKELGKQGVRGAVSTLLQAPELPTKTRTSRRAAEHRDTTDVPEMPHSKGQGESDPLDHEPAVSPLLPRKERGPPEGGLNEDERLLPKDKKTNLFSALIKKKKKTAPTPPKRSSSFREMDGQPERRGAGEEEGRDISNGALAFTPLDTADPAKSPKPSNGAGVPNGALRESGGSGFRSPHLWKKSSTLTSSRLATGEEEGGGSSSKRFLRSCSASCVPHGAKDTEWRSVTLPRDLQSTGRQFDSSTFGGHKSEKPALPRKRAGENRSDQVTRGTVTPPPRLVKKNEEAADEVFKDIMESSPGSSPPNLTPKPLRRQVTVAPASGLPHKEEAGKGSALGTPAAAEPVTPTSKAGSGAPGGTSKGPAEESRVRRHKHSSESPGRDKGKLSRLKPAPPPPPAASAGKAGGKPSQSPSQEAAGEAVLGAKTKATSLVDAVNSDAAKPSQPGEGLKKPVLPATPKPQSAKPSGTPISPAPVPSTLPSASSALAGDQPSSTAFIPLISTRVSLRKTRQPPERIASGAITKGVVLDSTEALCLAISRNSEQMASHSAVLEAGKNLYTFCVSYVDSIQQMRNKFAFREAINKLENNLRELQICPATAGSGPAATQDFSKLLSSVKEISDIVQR
# [7] = target: Cyclin-dependent kinase 2/cyclin E1 (Homo sapiens, UniProt P24941); experiment: Inhibition of CDK2/Cyclin E (unknown origin) using histone H1 as substrate by [gamma-33P]ATP assay; assay type: protein-complex assay
# [8] = target: Carbonic anhydrase 2 (Homo sapiens, UniProt P00918); experiment: Inhibition of human carbonic anhydrase 2 preincubated for 15 mins by CO2 hydration assay
# Sequence of Carbonic anhydrase 12 (O43570 whole entry): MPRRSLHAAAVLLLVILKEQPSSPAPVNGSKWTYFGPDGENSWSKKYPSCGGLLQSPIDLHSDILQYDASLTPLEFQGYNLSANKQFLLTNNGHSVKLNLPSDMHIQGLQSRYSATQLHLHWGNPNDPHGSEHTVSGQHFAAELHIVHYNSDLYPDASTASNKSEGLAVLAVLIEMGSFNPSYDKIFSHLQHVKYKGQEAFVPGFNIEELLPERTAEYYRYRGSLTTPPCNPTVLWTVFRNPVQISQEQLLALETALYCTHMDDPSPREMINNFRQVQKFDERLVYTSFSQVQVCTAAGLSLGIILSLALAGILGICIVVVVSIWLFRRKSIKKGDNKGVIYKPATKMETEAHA
Ki [1] [µM],Ki [2] [µM],Ki [5] [µM],IC50 [6] [µM],IC50 [7] [µM],Ki [8] [µM],Structure (SMILES),IC50 [3] [µM],IC50 [4] [µM]
0.636,0.0377,> 10,> 50,> 50,> 10,CCOc1ccc(S(=O)(=O)N2CCN(C)CC2)cc1-c1nnc2c(n1)c(C)nn2C,> 25,> 25
0.616,0.0401,> 10,> 50,> 50,> 10,CCOc1ccc(S(=O)(=O)N2CCNCC2)cc1-c1nnc2c(n1)c(C)nn2C,> 25,> 25
0.0302,0.0244,> 10,> 50,> 50,> 10,CCOc1ccc(S(=O)(=O)N2CCOCC2)cc1-c1nnc2c(n1)c(C)nn2C,> 25,> 25
0.579,0.0281,> 10,> 25,> 25,> 10,CCOc1ccc(S(=O)(=O)N2CCCCC2)cc1-c1nnc2c(n1)c(C)nn2C,> 25,> 25
0.606,0.0403,> 10,> 50,> 50,> 10,CCOc1ccc(S(=O)(=O)N2CCCC2)cc1-c1nnc2c(n1)c(C)nn2C,> 25,> 25
0.667,0.0309,> 10,5.9,44.3,> 10,CCOc1ccc(S(=O)(=O)N2CCCNCC2)cc1-c1nnc2c(n1)c(C)nn2C,> 25,> 25
0.0573,0.0334,> 10,> 50,> 50,> 10,CCOc1ccc(S(=O)(=O)NCCN)cc1-c1nnc2c(n1)c(C)nn2C,> 25,> 25
0.0595,0.0398,> 10,> 50,> 50,> 10,CCOc1ccc(S(=O)(=O)NCCN2CCOCC2)cc1-c1nnc2c(n1)c(C)nn2C,> 25,> 25
0.0073,0.0381,> 10,> 50,> 50,> 10,CCOc1ccc(S(=O)(=O)NCCO)cc1-c1nnc2c(n1)c(C)nn2C,> 25,> 25
0.281,0.0424,> 10,> 50,> 50,> 10,CCOc1ccc(S(=O)(=O)N(CC)CC)cc1-c1nnc2c(n1)c(C)nn2C,> 25,> 25
0.0409,0.0326,> 10,> 100,> 100,> 10,CCOc1ccc(S(=O)(=O)NC(C)(CO)CO)cc1-c1nnc2c(n1)c(C)nn2C,> 100,> 100
0.608,0.0313,> 10,> 100,> 100,> 10,CCOc1ccc(S(=O)(=O)NC(C)(C)CO)cc1-c1nnc2c(n1)c(C)nn2C,> 100,> 100
0.0055,0.0316,6.83,–,–,0.422,CCOc1ccc(S(N)(=O)=O)cc1-c1nnc2c(n1)c(C)nn2C,–,–
–,–,–,–,–,–,Cc1ccc(NC(=O)c2ccc(CN3CCN(C)CC3)cc2)cc1Nc1nccc(-c2cccnc2)n1 [IMATINIB],> 10,–

Structure (SMILES),Ki [1] [µM],Ki [2] [µM],Ki [5] [µM],IC50 [6] [µM],IC50 [7] [µM],Ki [8] [µM],IC50 [3] [µM],IC50 [4] [µM]
CCCc1nn(C)c2nnc(-c3cc(S(=O)(=O)N4CCN(C)CC4)ccc3OCC)nc12,0.629,0.0154,> 10,> 50,> 25,> 10,> 25,> 25
CCCc1nn(C)c2nnc(-c3cc(S(=O)(=O)N4CCNCC4)ccc3OCC)nc12,0.0038,0.0387,> 10,–,–,> 10,–,–
